Measurements as given in BindingDB's records for doi:10.1016/j.bmc.2010.08.049 (University of Wisconsin-Milwaukee, 2010).

Assays:
[1] = target: Gamma-aminobutyric acid receptor subunit alpha-6/beta-3/gamma-2 (Homo sapiens, UniProt Q16445+P18507+P28472); experiment: Displacement of [3H]flunitrazepam from human recombinant GABAA alpha-6-beta-3-gamma-2 receptor expressed in HEK cells by liquid scintillation counting
[2] = target: T1, GABA-A receptor; alpha-2/beta-3/gamma-2 (Homo sapiens, UniProt P47869+P18507+P28472); experiment: Displacement of [3H]flunitrazepam from human recombinant GABAA alpha-2-beta-3-gamma-2 receptor expressed in HEK cells by liquid scintillation counting
T1 sequence (P47869 whole entry): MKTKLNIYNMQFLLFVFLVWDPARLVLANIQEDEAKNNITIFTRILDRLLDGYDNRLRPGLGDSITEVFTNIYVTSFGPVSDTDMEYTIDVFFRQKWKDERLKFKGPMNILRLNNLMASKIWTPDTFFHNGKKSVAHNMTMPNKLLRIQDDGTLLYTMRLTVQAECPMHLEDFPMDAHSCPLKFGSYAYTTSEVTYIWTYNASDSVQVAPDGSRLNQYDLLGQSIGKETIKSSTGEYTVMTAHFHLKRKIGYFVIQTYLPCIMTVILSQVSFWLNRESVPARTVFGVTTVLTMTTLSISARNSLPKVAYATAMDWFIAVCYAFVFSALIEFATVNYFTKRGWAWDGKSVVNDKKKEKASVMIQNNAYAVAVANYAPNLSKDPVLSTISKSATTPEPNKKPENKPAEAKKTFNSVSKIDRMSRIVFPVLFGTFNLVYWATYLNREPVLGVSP
T1 sequence (P18507 whole entry): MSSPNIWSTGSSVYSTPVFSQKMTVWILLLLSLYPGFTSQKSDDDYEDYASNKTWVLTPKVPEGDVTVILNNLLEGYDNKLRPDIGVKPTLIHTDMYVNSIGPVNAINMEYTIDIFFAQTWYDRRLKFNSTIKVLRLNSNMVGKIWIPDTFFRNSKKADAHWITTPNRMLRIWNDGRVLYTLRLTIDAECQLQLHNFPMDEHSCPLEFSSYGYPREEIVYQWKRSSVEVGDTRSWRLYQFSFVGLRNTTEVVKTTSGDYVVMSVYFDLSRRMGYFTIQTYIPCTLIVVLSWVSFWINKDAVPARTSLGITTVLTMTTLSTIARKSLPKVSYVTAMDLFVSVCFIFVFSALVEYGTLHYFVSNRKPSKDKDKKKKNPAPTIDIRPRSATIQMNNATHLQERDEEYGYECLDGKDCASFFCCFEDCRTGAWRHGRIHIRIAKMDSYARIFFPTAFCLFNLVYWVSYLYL
T1 sequence (P28472 whole entry): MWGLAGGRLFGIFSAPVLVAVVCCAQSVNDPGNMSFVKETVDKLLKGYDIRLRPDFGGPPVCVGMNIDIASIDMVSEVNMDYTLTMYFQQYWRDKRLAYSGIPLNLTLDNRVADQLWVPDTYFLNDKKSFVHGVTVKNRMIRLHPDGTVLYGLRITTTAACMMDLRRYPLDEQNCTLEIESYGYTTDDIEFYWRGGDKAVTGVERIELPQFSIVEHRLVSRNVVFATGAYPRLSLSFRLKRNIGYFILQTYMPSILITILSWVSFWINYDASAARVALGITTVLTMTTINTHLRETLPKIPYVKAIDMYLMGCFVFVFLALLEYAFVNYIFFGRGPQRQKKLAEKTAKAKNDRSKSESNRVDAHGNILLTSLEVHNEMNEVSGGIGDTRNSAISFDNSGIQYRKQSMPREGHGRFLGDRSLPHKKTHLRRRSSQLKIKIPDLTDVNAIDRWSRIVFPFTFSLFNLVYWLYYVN

[3] = target: T2, GABA-A receptor; alpha-5/beta-3/gamma-2 (Homo sapiens, UniProt P31644+P18507+P28472); experiment: Displacement of [3H]flunitrazepam from human recombinant GABAA alpha-5-beta-3-gamma-2 receptor expressed in HEK cells by liquid scintillation counting
T2 sequence (P31644 whole entry): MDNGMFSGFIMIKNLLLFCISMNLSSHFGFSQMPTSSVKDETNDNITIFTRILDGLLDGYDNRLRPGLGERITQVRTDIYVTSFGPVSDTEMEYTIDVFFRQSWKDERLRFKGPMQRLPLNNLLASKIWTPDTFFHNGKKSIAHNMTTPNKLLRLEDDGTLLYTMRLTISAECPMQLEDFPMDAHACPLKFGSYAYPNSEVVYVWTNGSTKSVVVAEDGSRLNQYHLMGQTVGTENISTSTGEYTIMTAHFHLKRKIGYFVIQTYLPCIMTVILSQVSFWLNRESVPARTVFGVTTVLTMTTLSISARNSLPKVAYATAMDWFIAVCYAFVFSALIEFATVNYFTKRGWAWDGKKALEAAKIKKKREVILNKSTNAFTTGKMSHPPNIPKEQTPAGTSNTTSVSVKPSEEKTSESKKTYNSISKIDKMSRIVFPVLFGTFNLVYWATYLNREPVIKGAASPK
T2 sequence (P18507 whole entry): T1 sequence (P18507 whole entry)
T2 sequence (P28472 whole entry): T1 sequence (P28472 whole entry)

[4] = target: T3, Gamma-aminobutyric acid receptor subunit alpha-3/beta-3/gamma-2 (Homo sapiens, UniProt P34903+P18507+P28472); experiment: Displacement of [3H]flunitrazepam from human recombinant GABAA alpha-3-beta-3-gamma-2 receptor expressed in HEK cells by liquid scintillation counting
T3 sequence (P34903 whole entry): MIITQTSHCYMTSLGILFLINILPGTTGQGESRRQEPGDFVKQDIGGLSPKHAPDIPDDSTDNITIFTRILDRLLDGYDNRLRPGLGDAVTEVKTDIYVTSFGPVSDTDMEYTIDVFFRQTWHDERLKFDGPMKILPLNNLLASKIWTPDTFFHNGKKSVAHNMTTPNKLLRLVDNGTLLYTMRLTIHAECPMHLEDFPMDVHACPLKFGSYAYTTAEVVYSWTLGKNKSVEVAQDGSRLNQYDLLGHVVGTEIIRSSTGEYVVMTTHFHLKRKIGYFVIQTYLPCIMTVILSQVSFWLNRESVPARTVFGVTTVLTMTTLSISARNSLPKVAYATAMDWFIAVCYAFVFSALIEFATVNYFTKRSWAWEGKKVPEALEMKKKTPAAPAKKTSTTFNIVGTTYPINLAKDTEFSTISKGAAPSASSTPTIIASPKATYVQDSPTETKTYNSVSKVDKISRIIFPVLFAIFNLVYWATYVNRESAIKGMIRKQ
T3 sequence (P18507 whole entry): T1 sequence (P18507 whole entry)
T3 sequence (P28472 whole entry): T1 sequence (P28472 whole entry)

[5] = target: GABA A receptor alpha-4/beta-3/gamma-2 (Homo sapiens, UniProt P48169+P18507+P28472); experiment: Displacement of [3H]flunitrazepam from human recombinant GABAA alpha-4-beta-3-gamma-2 receptor expressed in HEK cells by liquid scintillation counting
Sequence of GABA A receptor alpha-4/beta-3/gamma-2 (P48169 whole entry, one chain of several): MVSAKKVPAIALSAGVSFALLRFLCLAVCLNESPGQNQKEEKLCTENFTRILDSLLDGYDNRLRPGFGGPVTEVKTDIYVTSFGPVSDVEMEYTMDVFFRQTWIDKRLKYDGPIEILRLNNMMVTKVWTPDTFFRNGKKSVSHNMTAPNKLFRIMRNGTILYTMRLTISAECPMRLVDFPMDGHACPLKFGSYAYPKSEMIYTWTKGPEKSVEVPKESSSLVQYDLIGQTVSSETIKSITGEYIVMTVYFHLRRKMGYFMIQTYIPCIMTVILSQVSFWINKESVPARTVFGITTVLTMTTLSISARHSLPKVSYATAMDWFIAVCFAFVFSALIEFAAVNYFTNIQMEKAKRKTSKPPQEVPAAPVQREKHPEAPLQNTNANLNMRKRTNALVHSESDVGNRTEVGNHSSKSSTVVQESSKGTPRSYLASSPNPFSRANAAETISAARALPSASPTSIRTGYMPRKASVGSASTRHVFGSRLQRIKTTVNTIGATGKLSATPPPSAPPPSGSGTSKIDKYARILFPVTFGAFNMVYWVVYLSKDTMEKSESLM

Sequence of Gamma-aminobutyric acid receptor subunit alpha-6/beta-3/gamma-2 (Q16445 whole entry, one chain of several): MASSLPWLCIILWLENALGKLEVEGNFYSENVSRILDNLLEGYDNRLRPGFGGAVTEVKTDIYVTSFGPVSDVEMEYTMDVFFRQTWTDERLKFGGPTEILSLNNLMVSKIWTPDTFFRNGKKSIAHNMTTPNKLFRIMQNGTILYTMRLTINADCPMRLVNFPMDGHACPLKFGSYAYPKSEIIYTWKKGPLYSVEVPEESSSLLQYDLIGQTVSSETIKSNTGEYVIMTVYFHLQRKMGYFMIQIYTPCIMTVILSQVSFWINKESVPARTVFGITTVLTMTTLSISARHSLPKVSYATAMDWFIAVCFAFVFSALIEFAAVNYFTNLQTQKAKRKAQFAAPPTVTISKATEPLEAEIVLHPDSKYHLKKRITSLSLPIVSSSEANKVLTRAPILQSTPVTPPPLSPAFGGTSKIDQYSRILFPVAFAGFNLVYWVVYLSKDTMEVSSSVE

CC(C)COc1cc2c3ccccc3nc-2c[nH]1
Ki [1]: 10000 nM

c1ccc(COc2cc3c4ccccc4nc-3c[nH]2)cc1
Ki [2]: 3000 nM | Ki [1]: 10000 nM | Ki [3]: 10 µM | Ki [4]: 3000 nM

CC(C)(C)OC(=O)c1cc2c(cn1)[nH]c1ccccc12
Ki [5]: 1000 nM

O=C(OC(C(F)(F)F)C(F)(F)F)c1cc2c(cn1)[nH]c1ccc(I)cc12 [1,1,1,3,3,3-hexafluoropropan-2-yl 6-iodo-9H-pyrido[3,4-b]indole-3-carboxylate]
Ki [1]: 3000 nM | Ki [5]: 3000 nM

O=C(OC(C(F)(F)F)C(F)(F)F)c1cc2c(cn1)[nH]c1ccccc12 [1,1,1,3,3,3-hexafluoropropan-2-yl 9H-pyrido[3,4-b]indole-3-carboxylate]
Ki [1]: 2000 nM | Ki [5]: 1000 nM

CC(C)(C)OC(=O)c1cc2c(cn1)[nH]c1ccc(C#CC#Cc3ccc4[nH]c5cnc(C(=O)OC(C)(C)C)cc5c4c3)cc12 [1,4-Bis(9H-beta-carboline-3-carboxylic acid tert-butyl ester)buta-1,3-diyne]
Ki [1]: 5000 nM | Ki [5]: 5000 nM | Ki [3]: 5 µM

CC(OC(=O)c1cc2c(cn1)[nH]c1ccccc12)c1ccccc1 (stereo not given) [1-phenylethyl 9H-pyrido[3,4-b]indole-3-carboxylate]
Ki [2]: 1000 nM | Ki [1]: 3000 nM | Ki [5]: 1000 nM | Ki [3]: 1 µM | Ki [4]: 1000 nM

O=C(OCC(Cl)(Cl)Cl)c1cc2c(cn1)[nH]c1ccccc12 [2,2,2-trichloroethyl 9H-pyrido[3,4-b]indole-3-carboxylate]
Ki [1]: 2000 nM | Ki [5]: 1000 nM

O=C(OCC(F)(F)F)c1cc2c(cn1)[nH]c1ccc(-c3ccco3)cc12 [2,2,2-trifluoroethyl 6-(furan-2-yl)-9H-pyrido[3,4-b]indole-3-carboxylate]
Ki [1]: 2000 nM | Ki [5]: 3000 nM

O=C(OCC(F)(F)F)c1cc2c(cn1)[nH]c1ccc(-c3cccs3)cc12 [2,2,2-trifluoroethyl 6-(thiophen-2-yl)-9H-pyrido[3,4-b]indole-3-carboxylate]
Ki [1]: 2000 nM | Ki [5]: 2000 nM

C#Cc1ccc2[nH]c3cnc(C(=O)OCC(F)(F)F)cc3c2c1 [2,2,2-trifluoroethyl 6-ethynyl-9H-pyrido[3,4-b]indole-3-carboxylate]
Ki [1]: 2000 nM | Ki [5]: 2000 nM

O=C(OCC(F)(F)F)c1cc2c(cn1)[nH]c1ccc(I)cc12 [2,2,2-trifluoroethyl 6-iodo-9H-pyrido[3,4-b]indole-3-carboxylate]
Ki [1]: 3000 nM | Ki [5]: 2000 nM

O=C(OCC(F)(F)F)c1cc2c(cn1)[nH]c1ccc(-c3ccccc3)cc12 [2,2,2-trifluoroethyl 6-phenyl-9H-pyrido[3,4-b]indole-3-carboxylate]
Ki [1]: 2000 nM | Ki [5]: 2000 nM

O=C(Oc1cc(F)c(F)cc1F)c1cc2c(cn1)[nH]c1ccccc12 [2,4,5-trifluorophenyl 9H-pyrido[3,4-b]indole-3-carboxylate]
Ki [1]: 3000 nM | Ki [5]: 3000 nM

CC/C=C/C=C/Oc1cc2c(cn1)[nH]c1ccccc12 [3-(hexa-1,3-dienyloxy)-9H-pyrido[3,4-b]indole]
Ki [1]: 10000 nM | Ki [3]: 10 µM

CCOc1cc2c(cn1)[nH]c1ccccc12 [3-ethoxy-9H-pyrido[3,4-b]indole]
Ki [1]: 1000 nM

CCCOc1cc2c(cn1)[nH]c1ccccc12 [3-propoxy-9H-pyrido[3,4-b]indole]
Ki [5]: 1000 nM

CC(C)(C)OC(=O)c1cc2c(cn1)[nH]c1ccc(C#C[Si](C)(C)C)cc12 [6-Trimethylsilanylethynyl-9H-beta-carboline-3-carboxylic acid t-butyl ester]
Ki [1]: 1000 nM

C#Cc1ccc2c(c1)c1cc(C(=O)OC(C)(C)C)ncc1n2C(=O)OC(C)(C)C [di-tert-butyl 6-ethynyl-9H-pyrido[3,4-b]indole-3,9-dicarboxylate]
Ki [1]: 5000 nM | Ki [3]: 5 µM

CCOC(=O)c1cc2c(cn1)[nH]c1ccc(C#C[Si](C)(C)C)cc12 [ethyl 6-((trimethylsilyl)ethynyl)-9H-pyrido[3,4-b]indole-3-carboxylate]
Ki [1]: 2000 nM | Ki [5]: 2000 nM

CCOC(=O)c1cc2c(cn1)[nH]c1ccc(I)cc12 [ethyl 6-iodo-9H-pyrido[3,4-b]indole-3-carboxylate]
Ki [1]: 1000 nM | Ki [5]: 1000 nM

CC(C)(C)OC(=O)c1cc2c(cn1)[nH]c1ccc(-c3ccco3)cc12 [tert-butyl 6-(furan-2-yl)-9H-pyrido[3,4-b]indole-3-carboxylate]
Ki [1]: 5000 nM

CC(C)(C)OC(=O)c1cc2c(cn1)[nH]c1ccc(-c3cccs3)cc12 [tert-butyl 6-(thiophen-2-yl)-9H-pyrido[3,4-b]indole-3-carboxylate]
Ki [1]: 5000 nM

CC(C)(C)OC(=O)c1cc2c(cn1)[nH]c1ccc(F)cc12 [tert-butyl 6-fluoro-9H-pyrido[3,4-b]indole-3-carboxylate]
Ki [1]: 1000 nM | Ki [5]: 1000 nM

CC(C)(C)OC(=O)c1cc2c(cn1)[nH]c1ccc(-c3ccccc3)cc12 [tert-butyl 6-phenyl-9H-pyrido[3,4-b]indole-3-carboxylate]
Ki [1]: 5000 nM

CC(C)(C)OC(=O)c1cc2c(cn1)[nH]c1ccc(C(C)(C)C)cc12 [tert-butyl 6-tert-butyl-9H-pyrido[3,4-b]indole-3-carboxylate]
Ki [1]: 1000 nM | Ki [5]: 1000 nM
